Source: patent publication US20250289785A1, “INDOLE DERIVATIVE, METHOD FOR PREPARING SAME, AND USE THEREOF” (MITOIMMUNE THERAPEUTICS INC., priority 2021, published 2025)
Like-named read-outs stand apart in the source and are kept apart here.

Tests used:
H9C2 cells [1] = assay: Cell protection effect against t-BHP in heart cells (LDH release); type: cell-based; settings: H9C2, t-BHP 40 μM, 2 hours
Method: In order to identify the protective effect with regard to heart cells, H9C2 cells were divided into 96-well plates by 1.5×10^4, and cultured for 24 hours. The respective wells were treated with compounds of the examples 3× serial diluted to final concentrations of […], then cultured for 15 to 20 minutes. After treating with t-BHP with a final concentration of 40 μM, culturing was performed for 2 hours. In order to identify the protective effect of each compound, a Cytotoxicity LDH assay kit [Dojindo; CK12] was used to measure the degree of extracellular secretion of LDH. To describe briefly, at the time point 2-hour treatment of the cells with t-BHIP was completed, 100 μL each of the supernatant in which the cells were placed was collected and moved to a new 96-well plate. 100 μL/well of the assay buffer included in the kit (same amount as the sample) was added, followed by wrapping with foil and reacting for 30 minutes at room temperature. Observing the change in color of the sample, 50 μL/well of stop solution was added, then an iD3 spectrometer was used to measure absorbance at 490 nm and calculate the EC50 values. The EC50 of the compounds of the examples is preferably no more than 1.0 μM, and more preferably no more than 0.3 μM.

PC-12 cells = assay: Cell death protective effect in adrenal cells against Erastin, glutamate and RSL3 (LDH); type: cell-based, rat; settings: 24 h
Method: In order to identify the protective effect on adrenal cells, PC-12 cells were divided into 96-well plates by 1×10^4 and cultured for 18 to 24 hours. […] Erastin, glutamate, and RSL3 were treated to have final concentrations of 1 μM, 10 mM, and 0.3 μM, respectively, and cultured for 24 hours. In order to identify the protective effect of each compound, the degree of LDH extracellular secretion was measured using cytotoxicity LDH assay kit [Dojindo; CK12]. Briefly, at the time when the treatment of the cells with Erastin, glutamate, and RSL3 for 24 hours is completed, the supernatants containing the cells are taken by 70 μL and transferred to a new 96-well plate. The assay buffer included in the kit is added in an amount of 70 μL/well (the same amount as the sample) thereto, and then the plate is wrapped with a foil and the reaction is performed at room temperature for 15 minutes.

H9C2 cells [2] = assay: Maintenance of intracellular calcium level in heart cells treated with t-BHP (FLIPR Calcium 6); type: cell-based, rat; settings: H9C2, t-BHP 150 μM
Method: To examine the maintenance effect on calcium level in heart cells, H9C2 cells were divided into a 96-well plate by 1.5×10^4 cells/well and cultured for 24 hours. To measure intracellular calcium level, a FLIPR Calcium 6 assay kit (Molecular devices; #R8190) was used. Following the experimental method provided by the manufacturer, cells were treated with probenecid and calcium-sensitive dye for 1.75 hours, and then the cells were treated with the compound of Example 2 for 0.25 hours (the final concentration of the compound was 0.02 or 0.01 μM). And the cells were treated with t-BHP to a final concentration of 150 μM, then intracellular calcium level was measured every 30 seconds in real time.
FIG. 1 is a graph regarding the regulatory effect of the compound of Example 2 on calcium level under t-BHP treatment. The ΔF/F(Max−Min) value on the vertical axis is the difference between the maximum and minimum fluorescence intensity values of the calcium-sensitive dye after treatment with t-BHP (150 μM), and this value increases as intracellular calcium level increases.

[3] = Plasma and brain concentration after oral administration to ICR mice (HPLC-MS/MS); type: in vivo; settings: 10 mg/kg; for concentration at 2 h / concentration at 24 h / AUC(0-t): ICR, mouse, po
Method: […] parameters can be represented as maximum concentration in plasma (Cmax), time taken until maximum concentration in plasma (Tmax), area under the plasma concentration-time curve (AUClast and AUCinf), and half-life (t1/2), and the like.
The compound of example 2 was orally administered to ICR mice at a dose of 10 mg/kg, and drug concentration in mouse plasma was measured using HPLC-MS/MS spectroscopy at 0.5, 1, 2, 4, 8 and 24 hours. The mouse brains were removed at 2 or 24 hours, and drug concentration in the brain was measured using HPLC-MS/MS spectroscopy. The area under the plasma concentration v. time curve (AUCinf) was measured to be […], and at 2 hours after administration drug concentration in plasma was 546 ng/mL and brain drug concentration was measured at 1043 ng/mL. […] Further, at 24 hours after administration, for Embodiment 2, drug concentration in plasma was measured to be 4.7 ng/mL and drug concentration in the brain was measured at 5.7 ng/mL. With the brain-plasma drug concentration ratio at 1.23, drug exposure in the brain was still high.
The Comparative Example compound was orally administered to ICR mice at a dose of 10 mg/kg, and drug concentration in mouse plasma was measured using HPLC-MS/MS spectroscopy at 0.5, 1, 2, 4, 8 and 24 hours. The mouse brains were removed at 2 or 24 hours, and drug concentration in the brain was measured using HPLC-MS/MS spectroscopy.

[4] = PC-12, Erastin, 1 μM, compound 0.1 μM
[5] = PC-12, Erastin, 1 μM, compound 1.0 μM
[6] = PC-12, Glutamate, 10 mM, compound 0.1 μM
[7] = PC-12, Glutamate, 10 mM, compound 1.0 μM
[8] = PC-12, RSL3, 0.3 μM, compound 0.1 μM
[9] = PC-12, RSL3, 0.3 μM, compound 1.0 μM
[10] = ICR mouse, 2 hours after administration

| EC50 (H9C2 cells [1]) [nM] | SMILES | inhibition (%) (PC-12 cells; [4]) | inhibition (%) (PC-12 cells; [5]) | inhibition (%) (PC-12 cells; [6]) | inhibition (%) (PC-12 cells; [7]) | inhibition (%) (PC-12 cells; [8]) | inhibition (%) (PC-12 cells; [9]) | also measured |
| --- | --- | --- | --- | --- | --- | --- | --- | --- |
| ≤ 300 | COCc1cc(NC2CCOCC2)c2[nH]c(-c3ccccc3)cc2c1 [Example 1, 5-(methoxymethyl)-2-phenyl-N-tetrahydropyran-4-yl-1H-indol-7-amine] | 100 | 100 | 77 | 100 | 100 | 100 | – |
| – | CCOC(=O)c1ccc(NC2CCCCC2)c(N)c1 [Ferrostatin-1, reference compound] | 100 | 100 | 29 | 99 | 100 | 100 | – |
| ≤ 300 | COCCc1cc(NC2CCOCC2)c2[nH]c(-c3ccccc3)cc2c1 [Example 41, 5-(2-methoxyethyl)-2-phenyl-N-(tetrahydro-2H-pyran-4-yl)-1H-indol-7-amine] | 100 | 100 | 76 | 100 | 100 | 100 | – |
| ≤ 300 | CCOCc1cc(NC2CCCC2)c2[nH]c(-c3ccccc3)cc2c1 [Example 19, N-cyclopentyl-5-(ethoxymethyl)-2-phenyl-1H-indol-7-amine] | 100 | 100 | 100 | 100 | 100 | 100 | – |
| ≤ 300 | COCc1cc(NC2CC[S+]([O-])CC2)c2[nH]c(-c3ccccc3)cc2c1 (centres unmarked) [Example 14, 5-(methoxymethyl)-N-(1-oxothian-4-yl)-2-phenyl-1H-indol-7-amine] | 100 | 100 | 45 | 100 | 100 | 100 | – |
| ≤ 300 | COCc1cc(NC2CCCC2)c2[nH]c(-c3ccccc3)cc2c1 [Example 2, N-cyclopentyl-5-(methoxymethyl)-2-phenyl-1H-indol-7-amine] | 100 | 100 | 96 | 100 | 100 | 100 | intracellular calcium level, ΔF/F(Max−Min) (H9C2 cells [2]; compound 0.01 μM): significantly decreased; intracellular calcium level, ΔF/F(Max−Min) (H9C2 cells [2]; compound 0.02 μM): within normal range; brain drug concentration [3, 10]: 1043.2 ng/mL; drug concentration in plasma [3, 10]: 546.1 ng/mL; AUClast, Brain ([3]; ICR mouse, from the 2 and 24 hr samples): 12581.1 ng·h/g; AUC(0-inf) ([3]; ICR mouse, plasma, read-out: area under the plasma concentration v. time curve (AUCinf)): 4960 ng·h/mL; concentration at 2 h ([3]; brain, 2 hours after administration, read-out: brain drug concentration): 1040 ng/mL; concentration at 24 h ([3]; brain, 24 hours after administration, read-out: drug concentration in the brain): 5.7 ng/mL; concentration at 2 h ([3]; plasma, 2 hours after administration, read-out: drug concentration in plasma): 546 ng/mL; concentration at 24 h ([3]; plasma, 24 hours after administration, read-out: drug concentration in plasma): 4.7 ng/mL; AUC(0-t) ([3]; plasma, from the 2 and 24 hr samples, read-out: AUClast, Plasma): 6600 ng·h/mL; AUC(0-t) ([3]; plasma, plasma, read-out: 0.5~24 hr AUClast): 4940 ng·h/mL; AUC(0-t) ([3]; plasma, plasma, read-out: area under the plasma concentration v. time curve (AUClast)): 4940 ng·h/mL; Kp at 2 h ([3]; brain/plasma, ICR mouse, 2 hours after administration, read-out: brain-plasma drug concentration ratio (B/P ratio)): 1.91; Kp at 24 h ([3]; brain/plasma, ICR mouse, 24 hours after administration, read-out: brain-plasma drug concentration ratio (B/P ratio)): 1.23; Kp ([3]; brain/plasma, ICR mouse, read-out: AUClast B/P ratio): 1.9 |
| > 1000 | CCOCc1cc(NC2CCOCC2)c2[nH]c(-c3ccccc3)c(-c3ncc[nH]3)c2c1 [Example 46, 5-(ethoxymethyl)-3-(1H-imidazol-2-yl)-2-phenyl-N-(tetrahydro-2H-pyran-4-yl)-1H-indole-7-amine] | 0 | 38 | 4 | 6 | 0 | 100 | – |
| 300 to 1000 | CCOCc1cc(NC2CCOCC2)c2c(c1)c(COC)c(-c1ccccc1)n2C [Example 29, 5-(ethoxymethyl)-3-(methoxymethyl)-1-methyl-2-phenyl-N-(tetrahydro-2H-pyran-4-yl)-1H-indol-7-amine] | 0 | 100 | 22 | 71 | 26 | 100 | – |
